The values below come from patent publication US7153865B2, “N-type calcium channel antagonists for the treatment of pain” (Astrazeneca AB, priority 2001, dated 2006).

Assay [1] relates to formalin-induced nocifensive behaviours. As to the kind of experiment: Formalin test. The class given is in vivo, rats. The following applies: dose 60, time 40, route IP (units of dose and time not given).
The target of another assay is N-type calcium channel (Homo sapiens, UniProt Q00975). Put plainly: N-channel FLIPR (Fluorescent Laser Imaging Plate Reader) assay. It counts as cell-based. Conditions: differentiated IMR32 cells, 80 mM K+ stimulus; unit inferred.
The test system of another assay is NK-1 receptor. The following applies: phenylbenzoquinone-induced writhing and formalin test; compared with morphine; cited from earlier work. On the technique in general: In writhing tests, fewer writhes than in controls are read as antinociception.

Sequence of N-type calcium channel (Q00975 whole entry): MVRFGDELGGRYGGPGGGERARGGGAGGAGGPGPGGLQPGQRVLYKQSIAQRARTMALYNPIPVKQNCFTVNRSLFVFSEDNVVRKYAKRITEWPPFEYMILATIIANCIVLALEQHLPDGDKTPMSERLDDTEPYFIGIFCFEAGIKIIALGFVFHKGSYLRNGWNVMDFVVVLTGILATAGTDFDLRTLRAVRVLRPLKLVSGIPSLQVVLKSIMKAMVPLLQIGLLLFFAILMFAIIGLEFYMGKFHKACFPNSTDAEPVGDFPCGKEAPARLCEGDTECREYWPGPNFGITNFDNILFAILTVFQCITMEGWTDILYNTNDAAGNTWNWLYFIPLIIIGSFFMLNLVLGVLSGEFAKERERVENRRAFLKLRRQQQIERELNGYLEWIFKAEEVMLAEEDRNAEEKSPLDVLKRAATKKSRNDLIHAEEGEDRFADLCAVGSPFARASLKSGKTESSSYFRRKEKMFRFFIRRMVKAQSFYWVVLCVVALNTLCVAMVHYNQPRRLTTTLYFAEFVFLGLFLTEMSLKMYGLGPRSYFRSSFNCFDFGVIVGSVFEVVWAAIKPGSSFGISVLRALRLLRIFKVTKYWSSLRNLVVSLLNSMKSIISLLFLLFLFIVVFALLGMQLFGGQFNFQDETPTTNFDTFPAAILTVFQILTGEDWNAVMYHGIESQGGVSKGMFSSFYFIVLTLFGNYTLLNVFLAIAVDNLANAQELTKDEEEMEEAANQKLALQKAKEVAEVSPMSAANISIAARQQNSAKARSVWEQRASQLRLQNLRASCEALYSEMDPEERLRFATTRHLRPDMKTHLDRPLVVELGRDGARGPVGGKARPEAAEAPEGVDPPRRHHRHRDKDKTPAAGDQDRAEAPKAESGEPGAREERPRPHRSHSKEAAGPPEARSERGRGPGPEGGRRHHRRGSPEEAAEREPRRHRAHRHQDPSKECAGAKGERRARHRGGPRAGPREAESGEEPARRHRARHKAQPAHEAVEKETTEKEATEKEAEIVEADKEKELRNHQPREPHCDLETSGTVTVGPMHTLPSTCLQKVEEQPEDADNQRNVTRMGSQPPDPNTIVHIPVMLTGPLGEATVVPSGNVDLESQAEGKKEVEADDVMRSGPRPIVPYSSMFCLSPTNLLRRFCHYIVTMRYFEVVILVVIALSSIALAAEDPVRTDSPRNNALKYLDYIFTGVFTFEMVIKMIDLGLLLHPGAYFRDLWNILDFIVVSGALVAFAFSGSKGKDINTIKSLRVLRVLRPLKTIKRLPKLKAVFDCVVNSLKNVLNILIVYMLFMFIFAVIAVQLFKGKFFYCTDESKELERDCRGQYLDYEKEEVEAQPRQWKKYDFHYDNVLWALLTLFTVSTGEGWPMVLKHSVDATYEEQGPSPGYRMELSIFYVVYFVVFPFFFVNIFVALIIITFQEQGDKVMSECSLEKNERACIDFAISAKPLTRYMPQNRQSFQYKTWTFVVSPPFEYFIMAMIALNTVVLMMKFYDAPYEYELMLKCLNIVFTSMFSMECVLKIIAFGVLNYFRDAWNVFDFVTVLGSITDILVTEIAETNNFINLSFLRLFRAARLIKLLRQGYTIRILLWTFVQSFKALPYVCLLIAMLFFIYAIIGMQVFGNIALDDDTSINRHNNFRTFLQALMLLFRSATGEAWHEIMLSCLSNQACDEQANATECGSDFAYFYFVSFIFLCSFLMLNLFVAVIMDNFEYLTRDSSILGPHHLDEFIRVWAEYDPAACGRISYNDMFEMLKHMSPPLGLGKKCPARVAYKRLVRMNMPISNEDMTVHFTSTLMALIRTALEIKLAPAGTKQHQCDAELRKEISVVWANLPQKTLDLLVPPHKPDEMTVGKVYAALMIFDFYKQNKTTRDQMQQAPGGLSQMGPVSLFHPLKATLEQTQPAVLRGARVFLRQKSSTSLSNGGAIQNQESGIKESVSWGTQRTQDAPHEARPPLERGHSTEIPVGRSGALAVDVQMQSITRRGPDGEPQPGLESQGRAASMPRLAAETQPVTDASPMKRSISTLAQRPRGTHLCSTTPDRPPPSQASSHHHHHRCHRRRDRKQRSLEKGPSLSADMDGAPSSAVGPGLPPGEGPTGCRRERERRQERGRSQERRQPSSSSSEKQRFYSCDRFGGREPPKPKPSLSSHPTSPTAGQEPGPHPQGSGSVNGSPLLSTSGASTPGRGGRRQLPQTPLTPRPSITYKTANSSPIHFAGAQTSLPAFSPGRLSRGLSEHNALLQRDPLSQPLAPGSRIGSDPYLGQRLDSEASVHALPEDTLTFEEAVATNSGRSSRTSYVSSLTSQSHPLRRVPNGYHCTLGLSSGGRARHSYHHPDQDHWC
Sequence of N-type calcium channel (P54284 whole entry partner): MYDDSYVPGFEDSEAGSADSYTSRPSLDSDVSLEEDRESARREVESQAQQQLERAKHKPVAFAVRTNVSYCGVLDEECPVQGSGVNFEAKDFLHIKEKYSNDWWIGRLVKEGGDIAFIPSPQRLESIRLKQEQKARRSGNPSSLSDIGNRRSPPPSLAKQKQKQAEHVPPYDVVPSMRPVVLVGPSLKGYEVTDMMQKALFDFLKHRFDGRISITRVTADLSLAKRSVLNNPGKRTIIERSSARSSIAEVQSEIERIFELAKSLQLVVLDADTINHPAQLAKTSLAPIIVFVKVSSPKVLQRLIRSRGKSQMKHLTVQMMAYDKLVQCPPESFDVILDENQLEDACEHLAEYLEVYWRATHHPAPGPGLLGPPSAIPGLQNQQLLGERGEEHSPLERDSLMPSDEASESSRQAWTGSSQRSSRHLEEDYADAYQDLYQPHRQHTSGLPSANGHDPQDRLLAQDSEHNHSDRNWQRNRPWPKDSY
Sequence of N-type calcium channel (P54289 25-956 partner limits assumed): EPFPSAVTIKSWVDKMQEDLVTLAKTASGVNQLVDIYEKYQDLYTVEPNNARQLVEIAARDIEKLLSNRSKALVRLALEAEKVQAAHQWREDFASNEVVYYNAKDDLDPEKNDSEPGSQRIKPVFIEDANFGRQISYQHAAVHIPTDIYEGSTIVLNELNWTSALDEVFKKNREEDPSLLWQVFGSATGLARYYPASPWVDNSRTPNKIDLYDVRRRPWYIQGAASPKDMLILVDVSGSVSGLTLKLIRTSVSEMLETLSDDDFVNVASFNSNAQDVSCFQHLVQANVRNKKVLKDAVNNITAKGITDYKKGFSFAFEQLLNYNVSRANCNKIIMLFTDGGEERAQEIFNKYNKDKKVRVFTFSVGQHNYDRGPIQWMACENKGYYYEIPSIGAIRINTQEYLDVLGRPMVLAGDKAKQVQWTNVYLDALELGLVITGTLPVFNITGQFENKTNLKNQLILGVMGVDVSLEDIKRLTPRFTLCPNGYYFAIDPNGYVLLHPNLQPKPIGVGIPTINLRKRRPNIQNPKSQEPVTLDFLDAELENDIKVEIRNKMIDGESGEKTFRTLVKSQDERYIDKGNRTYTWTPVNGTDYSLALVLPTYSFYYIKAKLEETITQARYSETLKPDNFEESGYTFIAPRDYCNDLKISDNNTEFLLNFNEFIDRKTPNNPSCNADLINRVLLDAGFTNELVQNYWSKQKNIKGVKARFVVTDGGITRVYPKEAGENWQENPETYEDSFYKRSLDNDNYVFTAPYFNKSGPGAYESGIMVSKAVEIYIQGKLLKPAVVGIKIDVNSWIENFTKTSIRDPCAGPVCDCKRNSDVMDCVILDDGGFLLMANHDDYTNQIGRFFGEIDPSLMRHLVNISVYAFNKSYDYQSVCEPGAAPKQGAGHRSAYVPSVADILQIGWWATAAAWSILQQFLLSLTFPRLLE
Sequence of N-type calcium channel (P54289 957-1103 partner limits assumed): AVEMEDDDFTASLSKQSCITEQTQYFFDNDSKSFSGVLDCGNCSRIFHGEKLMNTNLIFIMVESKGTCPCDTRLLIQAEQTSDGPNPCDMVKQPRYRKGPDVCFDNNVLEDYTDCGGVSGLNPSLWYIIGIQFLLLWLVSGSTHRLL

For `Clc1ccc(Nc2cc(Nc3ccccc3N3CCOCC3)nc3ccccc23)cc1Cl` [Example 2, N4-(3,4-Dichloro-phenyl)-N2-(2-morpholin-4-yl-phenyl)-quinoline-2,4-diamine], the “Formalin test % inhibition (dose, time route)” value in assay [1] was 42 (60, 40, IP) %.

The IC50 is the concentration that gives 50% inhibition. As to `Nc1ccccc1Nc1cc(Nc2ccc(Cl)c(Cl)c2)c2cccc(F)c2n1` [Example 14, N2-(2-Amino-phenyl)-N4-(3,4-dichloro-phenyl)-8-fluoro-quinoline-2,4-diamine], the IC50 on N-type calcium channel is 4.01 µM.

On to `Nc1ccccc1Nc1cc(Nc2ccc(Cl)c(Cl)c2)c2ccccc2n1` [Example 27, N2-(2-amino-phenyl)-N4-(3,4-dichloro-phenyl)-quinoline-2,4-diamine], for which the IC50 on N-type calcium channel was found to be 9.82 µM.

As to `COc1ccccc1CC(=N)N1C[C@@H]2C(=O)CCC(c3ccccc3)(c3ccccc3)[C@@H]2C1` [RP 67,580], in the assay on NK-1 receptor, the “analgesia in chemo-nociception tests” value is given as “produced analgesia with potency comparable to that of morphine”.
